From patent US20220153780A1, “SALT FORMS OF S-(N, N-DIETHYLCARBAMOYL)GLUTATHIONE” (Tonix Pharma Holdings Limited, priority 2019, published 2022)
Entries after “also recorded” stand apart in the source; their conditions may differ.

Tests used:
Assay type in all cases: physicochemical
[1] = Solid form stability by XRPD (ambient conditions, humidity, drying)
Description: (§1) Carbamathione (50 mg) and one equivalent of L-Lysine were weighed in an 8-mL glass vial. Water (1-2 mL) was added and the mixture was allowed to stir for 24 hours. The equimolar mixture of carbamathione and L-Lysine was soluble in water and no precipitate was observed after 24 hours of stirring. The solution was left to evaporate at high temperature (60° C.) and an off-white solid was isolated. XRPD analysis confirmed the recovery of new derivative TNX1001-LLYS-NP01 (FIG. 15).
After 24 hours of stirring, the solid was collected and analyzed by XRPD, and a new diffraction pattern was observed (FIG. 18). This new pattern was labeled as TNX1001-LLYS-NP02. […] After the drying step, the sample was exposed to humidity for 24 hours and the diffractogram acquired again.
From the experiments carried out with L-lysine in organic media, a second new diffraction pattern was also observed, in particular when an equimolar mixture of TNX1001-SM and L-lysine co-former was slurried at room temperature for 24 hours in Methanol or Dichloromethane (TNX1001-LLYS-NP02).

[2] = Dissolution temperature in buffers (Crystal16) and estimated solubility at 25° C.
Description: Three different buffer solutions were prepared according to European Pharmacopoeia procedures (pH 1.2), or by diluting commercially available concentrate buffer solutions (pH 4.5 and 6.8).
Phosphate buffer at pH 6.8 was prepared by diluting a commercially available concentrate solution (Reagecon) with HPLC grade water. The final pH was adjusted using a 1 M NaOH solution.
Acetate buffer at pH 4.5 was prepared by diluting a commercially available concentrate solution (Reagecon) with HPLC grade water. The final pH was adjusted using concentrated acetic acid and a 1 M NaOH solution.
A buffer at pH 1.2 was prepared by mixing NaCl (0.2 M, 125 mL) and HCl (0.2 M, 212.5 mL) solutions followed by adjusting the volume to 500 mL. The pH was adjusted with a 1 M NaOH solution.
The determination of the dissolution temperature was performed in the automatic reactor system Crystal16. The system allows for careful control of the temperature and is equipped with a turbidimeter enabling the detection of the complete dissolution of the solid. The proper amount of compound was accurately weighted in a 1.5 mL vial equipped with a magnetic stirring bar. The selected buffer solution was pre-cooled in a refrigerator and the proper volume was added to the vial. The suspension was placed in the automatic reactor system pre-cooled at 10° C. and stirred at 600 rpm. The temperature was kept constant for 5 minutes to allow the system to equilibrate. The temperature was then increased at 0.5° C./min until a clear solution was obtained. For each pH, four solutions with increasing concentration were prepared and subjected to the same temperature program.
Although this is incorrect from a theoretical point of view, the closeness of the experimental value at 24° C. limited the error made by using this simple approximation.
Although this is incorrect from a theoretical point of view, the closeness of the experimental value at 26° C. limited the error made by using this simple approximation.

[3] = Dynamic vapor sorption (DVS) analysis
Description: The anhydrous carbamathione lysine salt (TNX1001-LLYS-NP01) was subjected to dynamic vapor sorption (DVS) analysis (FIG. 35). […] Similarly, the desorption curves display a clear decrease in mass between 30% and 20% RH. This behavior is consistent with a compound forming a hydrate species. Additionally, based on the water uptake of approximately 6.1% w/w at 70% RH, the hydrated form of the salt is likely a dihydrate species (FIG. 36).
The sorption/desorption cycle was performed twice.

[4] = Water solubility observed in slurry experiment in water; conditions: room temperature; equimolar L-lysine adduct
Description: as §1
The synthesis of the new derivative, TNX1001-LLYS-NP01, was carried out to facilitate its complete characterization. TNX1001-SM (150 mg) and L-Lysine (1 eq., 54 mg) were accurately weighed in a vial equipped with a magnetic stirring bar. H2O (3 ml) was added and the mixture was stirred at room temperature for 4 hours until a clear solution was obtained. The solution was filtered through a 0.45 μm RC-filter and the filtrate was evaporated at high temperature (60° C.). The recovered off-white solid was compared with the sample that was obtained from the slurry experiments in water by XRPD analysis to confirm the recovery of desired derivative (FIG. 26). The product was completely characterized using the methods outlined in Table 8 (see FIGS. 27-33).

[5] = Stability studies, one month storage at controlled temperature and humidity, XRPD
Description: Approximately 50 mg of the anhydrous carbamathione lysine salt was placed in a glass vial crimped with a PTFE/silicone septum and stored at the desired temperature and humidity for one month. Controlled humidity was realized employing saturated solutions of salts: NaCl for 75% RH at 40° C. and NaBr for 60% RH at 25° C. After storage, the samples were analyzed by XRPD analysis. Each stability test was performed in duplicate.

In the case of `CCN(CC)C(=O)SC[C@H](NC(=O)CC[C@H](N)C(=O)O)C(=O)NCC(=O)O.NCCCC[C@H](N)C(=O)O` [TNX1001-LLYS-NP01], the “stability of the solid form under ambient conditions (XRPD)” value ([1]; after 24 hours and up to 4 days) is reported as “good stability; also recorded: stable”, the “solid form after exposure of the dried sample to humidity (XRPD)” value ([1]; approximately 24 hours, ambient conditions) is reported as “converted spontaneously to initial form TNX1001-LLYS-NP02; also recorded: reconversion of the NP01 form into the NP02 form” and the “Solubility TNX1001-LYS” value ([2]; pH 1.2) is reported as “Not stable. TNX1001”. The stability in buffer ([2]; pH 1.2 (NaCl/HCl buffer), converted into the parent carbamathione) was “not stable”, the Tdiss. ([2]; pH 1.2 buffer, Conc. TNX1001-LYS 297 mg/mL (79 after dilution)) was “Dissolve and re-precipitate” and the Tdiss. ([2]; pH 1.2 buffer, Conc. TNX1001-LYS 349 mg/mL, after dilution to 93 mg/mL) was “Dissolves above 80 °C”. The Tdiss. ([2]; pH 1.2 buffer, Conc. TNX1001-LYS 400 mg/mL, after dilution to 107 mg/mL) was “Dissolves above 80 °C”, the Tdiss. ([2]; pH 1.2 buffer, Conc. TNX1001-LYS 455 mg/mL, after dilution to 121 mg/mL) was “Dissolves above 80 °C” and the “solubility increase compared with free carbamathione” value ([2]; pH 4.5, 25° C.) was “approximately 17%”. For the same compound, the “Solubility TNX1001-LYS” value ([2]; pH 4.5, 25° C., estimated by linear approximation, equivalent amount of TNX1001 dissolved) was 299 mg/mL of TNX1001, the Tdiss. ([2]; pH 4.5 acetate buffer, Conc. TNX1001-LYS 249 mg/mL) was under 10 °C and the Tdiss. ([2]; pH 4.5 acetate buffer, Conc. TNX1001-LYS 299 mg/mL) was 16 °C. The Tdiss. ([2]; pH 4.5 acetate buffer, Conc. TNX1001-LYS 356 mg/mL) was 26 °C, the Tdiss. ([2]; pH 4.5 acetate buffer, Conc. TNX1001-LYS 401 mg/mL) was 33 °C and the “solubility increase compared with free carbamathione” value ([2]; pH 6.8, 25° C.) was “approximately 10%”. For the same compound, the “Solubility TNX1001-LYS” value ([2]; pH 6.8, 25° C., estimated by linear approximation, equivalent amount of TNX1001 dissolved) was 255 mg/mL of TNX1001, the Tdiss. ([2]; pH 6.8 phosphate buffer, Conc. TNX1001-LYS 199 mg/mL) was under 10 °C and the Tdiss. ([2]; pH 6.8 phosphate buffer, Conc. TNX1001-LYS 223 mg/mL) was under 10 °C. The Tdiss. ([2]; pH 6.8 phosphate buffer, Conc. TNX1001-LYS 340 mg/mL) was 24 °C, the Tdiss. ([2]; pH 6.8 phosphate buffer, Conc. TNX1001-LYS 397 mg/mL) was 33 °C and the “water uptake (DVS)” value ([3]; at 70% RH) was “approximately 6.1 % w/w”. The “water uptake and water release over two sorption/desorption cycles” value ([3]; hydrated and anhydrous species) was “reversibly”, the “water solubility as compared to free carbamathione” value [4] was “clear improvement” and the “solid state stability (XRPD)” value ([5]; one month at 25° C. and 60% RH) was “stable”. For the same compound, the “solid state stability (XRPD)” value ([5]; one month at 40° C. and 75% RH) was “stable”.
